Results published in paper PMC9787607, “A Novel Protocol for the Synthesis of 1,2,4-Oxadiazoles Active against Trypanosomatids and Drug-Resistant Leukemia Cell Lines” (Tropical Medicine and Infectious Disease, 2022).

Experiments:
[1] = tested on: T. cruzi amastigotes (Tulahuen C2C4 LacZ strain); assay: microbe, parasite or virus in culture; assay type: cell-based, Trypanosoma cruzi; conditions: for viability at 50 µM: LLC-MK2, 120 h; for EC50: in LLC-MK2, 120 h, read-out: EC50 T. cruzi intracellular amastigotes; for S.I. (selectivity index): host cell/parasite EC50 ratio, LLC-MK2/T. cruzi
Procedure: To a monolayer of 1.0 × 10^7 LLC-MK2 cells in a 150 cm^2 culture flask were added 5.0 × 10^7 trypomastigotes of T. cruzi expressing the […] (Tulahuen C2C4 LacZ) in complete DMEM with 2.5% FBS. The infection was allowed to occur for 24 h, the supernatant was removed, and the cell monolayer was washed with PBS. Complete DMEM with 2.5% FBS was renewed every 2 days up to the sixth day after infection. Trypomastigote forms were collected daily from the supernatant between days 7 and 12 after infection, enriched by differential centrifugation (1500× g for 10 min, 5580× g for 20 min), and resuspended in complete DMEM with 5% FBS. Parasite density was determined by counting the mobile trypomastigotes on Neubauer chambers before use.
. The medium was renewed, and trypomastigote forms of T. cruzi (Tulahuen C2C4 LacZ strain, 2.0 × 10^5 parasites per well) were added. After incubation for 24 h at 37 °C in 5% CO2, the cell monolayer was washed with PBS to remove noninternalized parasites. DMEM without phenol red and 5% FBS was added, and infected cells were treated with compounds at a range of concentrations in triplicate (50 μM or 100–1 μM). Untreated infected cells and noninfected LLC-MK2 cells were used as negative and positive controls, respectively. Vehicle control containing DMEM without phenol red and 0.3% DMSO was maintained for comparison. After incubation for 120 h at 37 °C in 5% CO2, a solution containing […] and 0.8% IGEPAL CA-630 in PBS (30 µL per well), followed by further incubation for 2 h at 37 °C in 5% CO2. Absorbance was measured using a microplate reader at 570 nm.
(§1) The percent cell or parasite viability was calculated by the formula: % viability = [(A − P)/(N − P)] × 100, A = absorbance of specific well, P = positive control, N = negative control. Determination of half-maximal effective concentrations (EC50), calculated by logarithmic regression, and significance analysis (p < 0.05), using ANOVA and Dunnett’s test, by GraphPad Prism 7.0 software. The results are expressed as the mean and standard deviation (SD) of three independent experiments.

[2] = tested on: L. amazonensis amastigotes; assay: Anti-L. amazonensis amastigote assessment in RAW 264.7 macrophages; assay type: cell-based, Leishmania amazonensis; conditions: for EC50: Leishmania amazonensis, RAW264.7, in RAW 264.7, 48 h, read-out: EC50 L. amazonensis intracellular amastigotes; for S.I. (selectivity index): host cell/parasite EC50 ratio, RAW/L. amazonensis
Procedure: RAW 264.7 cells were seeded in a 96-well microplate (2.0 × 10^4 cells per well) in complete DMEM with 5% FBS and incubated for 3 h at 37 °C in 5% CO2 for cell adhesion. The medium was renewed, and L. amazonensis promastigotes (3.0 × 10^5 parasites per well) were added. After 24 h of incubation at 37 °C in 5% CO2, the cell monolayer was washed with PBS to remove noninternalized parasites, the medium was renewed, and compounds were added at a range of concentrations in triplicate (100–1 μM). Untreated infected cells and noninfected RAW 264.7 cells were used as negative and positive controls, respectively. Vehicle control containing DMEM and 0.3% DMSO was maintained for comparison. After incubation for 48 h at 37 °C in 5% CO2, the medium was removed, and a solution containing 0.02% SDS in PBS (20 µL per well) was added. Macrophage lysis and amastigote release were accompanied under an inverted microscope for 10–15 min. SIM with 12.5% SFB (80 µL per well) was added, parasites were allowed to differentiate into promastigotes for 48 h at 27 °C, and an MTT salt solution in PBS was added (3.0 mM, 20 µL per well). After incubation for 2 h at 27 °C, the MTT formazan was dissolved by adding 120 µL of solubilizing buffer (50% isopropanol, 40% acetate buffer pH 5.4, 10% Triton X). Absorbance was measured using a microplate reader at 570 nm.
as §1

[3] = Cytotoxicity to BALB/c mouse total splenocytes (MTT); assay type: cell-based; conditions: male; for EC50 at 48 h: primary total splenocytes, MTT, read-out: EC50 murine splenocytes; for viability at 48 h, 0.4 µM / viability at 48 h, 1 µM / viability at 48 h, 2.6 µM / viability at 48 h, 6.4 µM / viability at 48 h, 16 µM / viability at 48 h, 40 µM / viability at 48 h, 100 µM: total splenocytes (primary)
Procedure: BALB/c mouse total splenocytes were harvested from male mice between 6–8 weeks old. After euthanasia, the spleens were removed and macerated in DMEM. After centrifugation, the cells were treated with hemolytic ACK buffer at 37 °C for 5 min. […] After incubation for 48 h at 37 °C in 5% CO2, cell viability was determined after the addition of 20 µL per well of a solution containing MTT salt (3.0 mM) and phenazine metasulphate (0.72 mM). After further incubation for 1 h at 37 °C, the medium was removed, and DMSO was added to dissolve the dark-blue formazan crystals formed by MTT reduction. Absorbance was measured on a microplate reader at 570 nm.
as §1

[4] = target: T1, human serum albumin (HSA) (Homo sapiens, UniProt P02768); assay: Circular dichroism of HSA; assay type: binding; conditions: HSA 1.0 × 10^−6 M, proportion 1:10, 310 K
T1 construct: purchased Sigma-Aldrich A3782-1G
Procedure: The CD analysis was carried out using 3.0 mL of HSA solution (1.0 × 10^−6 M, in PBS) without and with 23 in the proportion 1:10 in the 200–250 nm range at 310 K. The average spectra were obtained from three successive runs and corrected by subtraction of the buffer signal. The secondary structure content was estimated by analysis of the CD spectra using the online server BestSel (Beta Structure Selection http://bestsel.elte.hu/index.php; accessed on 12 March 2022).

[5] = Trypanosoma cruzi, TULAHUEN, screening at 50 μM, 120 h, compared with untreated controls
[6] = Table S2 dose-dependent, 100 µM
[7] = 100 μM, 48 h, compared to the untreated control (Table S1)

T1 sequence (P02768 25-609): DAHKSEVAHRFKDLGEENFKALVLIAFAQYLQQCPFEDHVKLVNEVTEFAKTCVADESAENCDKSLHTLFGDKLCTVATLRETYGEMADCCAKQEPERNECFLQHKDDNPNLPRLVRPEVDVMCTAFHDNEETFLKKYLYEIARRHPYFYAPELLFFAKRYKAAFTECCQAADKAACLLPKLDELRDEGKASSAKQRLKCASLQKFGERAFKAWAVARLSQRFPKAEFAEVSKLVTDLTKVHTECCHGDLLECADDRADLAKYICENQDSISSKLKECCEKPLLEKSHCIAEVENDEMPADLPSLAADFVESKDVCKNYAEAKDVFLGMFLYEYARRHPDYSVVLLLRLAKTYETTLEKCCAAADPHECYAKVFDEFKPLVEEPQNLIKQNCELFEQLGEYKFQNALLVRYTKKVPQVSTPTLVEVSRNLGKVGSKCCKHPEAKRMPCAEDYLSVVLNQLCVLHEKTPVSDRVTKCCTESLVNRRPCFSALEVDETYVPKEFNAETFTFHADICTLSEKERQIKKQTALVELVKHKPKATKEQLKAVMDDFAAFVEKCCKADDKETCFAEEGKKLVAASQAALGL

COc1cc(/C=C/c2nc(-c3cc(OC)c(OC)c(OC)c3)no2)cc(OC)c1OC [Compound 23, (E)-3-(3,4,5-trimethoxyphenyl)-5-[2-(3,4,5-trimethoxyphenyl)-vinyl]-1,2,4-oxadiazole]
lowest concentration with significant amastigote growth inhibition compared with host cell toxicity ([1]; T. cruzi vs LLC-MK2, p < 0.05): 1.0 µM | viability at 50 µM [1, 5]: 8.6 ± 1.2% | viability at 1 µM ([1]; Trypanosoma cruzi, TULAHUEN, LLC-MK2, T. cruzi amastigotes at 1.0 μM, read-out: amastigote viability): 81.3 ± 6.2% | EC50 ([1]; Trypanosoma cruzi, TULAHUEN): 2.9 ± 0.2 µM | S.I. (selectivity index) [1]: 26.7 | lowest concentration with significant amastigote growth inhibition compared with host cell toxicity ([2]; L. amazonensis vs RAW 264.7, p < 0.05): 16 µM | EC50 [2]: 13.5 ± 3.6 µM | S.I. (selectivity index) [2]: >7.4 | EC50 at 48 h ([3]; 48 h): 33.3 ± 2.83 µM | viability at 48 h, 0.4 µM ([3]; Table S2 dose-dependent): 97.3 ± 3.3% | viability at 48 h, 1 µM ([3]; Table S2 dose-dependent): 94.9 ± 4% | viability at 48 h, 2.6 µM ([3]; Table S2 dose-dependent): 95 ± 4.4% | viability at 48 h, 6.4 µM ([3]; Table S2 dose-dependent): 84.6 ± 6.7% | viability at 48 h, 16 µM ([3]; Table S2 dose-dependent): 69.5 ± 6.4% | viability at 48 h, 40 µM ([3]; Table S2 dose-dependent): 43.4 ± 4.2% | viability at 48 h, 100 µM [3, 6]: 14.1 ± 3.5% | effect on the secondary content of HSA (CD) [4]: does not significantly perturb

COc1cc(-c2noc(/C=C/c3ccc4c(c3)OCO4)n2)cc(OC)c1OC [Compound 24, (E)-3-(3,4,5-trimethoxyphenyl)-5-[2-(3,4-methylenedioxy-phenyl)vinyl]-1,2,4-oxadiazole]
viability at 50 µM [1, 5]: 42.2 ± 2.7% | EC50 ([1]; Trypanosoma cruzi, TULAHUEN): 28.7 ± 3.1 µM | S.I. (selectivity index) [1]: 1.9 | EC50 [2]: 24.8 ± 10.4 µM | S.I. (selectivity index) [2]: 2.3 | viability at 48 h, 100 µM [3, 7]: 72.8 ± 4.2%

COc1cc(/C=C/c2nc(-c3ccccc3)no2)cc(OC)c1OC [Compound 12, (E)-3-phenyl-5-[2-(3,4,5-trimethoxyphenyl)vinyl]-1,2,4-oxadiazole]
viability at 50 µM [1, 5]: 37.8 ± 2.6% | EC50 ([1]; Trypanosoma cruzi, TULAHUEN): 22.5 ± 3.7 µM | S.I. (selectivity index) [1]: >4.5 | EC50 [2]: 50.1 ± 16.4 µM | S.I. (selectivity index) [2]: >2.0 | viability at 48 h, 100 µM [3, 7]: 72.1 ± 6.5%

C(=C\c1nc(-c2ccccc2)no1)/c1cccnc1 [Compound 15, (E)-3-phenyl-5-[2-pyridyn-3-yl-vinyl]-1,2,4-oxadiazole]
viability at 50 µM [1, 5]: 33.8% | EC50 ([1]; Trypanosoma cruzi, TULAHUEN): 33.8 ± 2.3 µM | S.I. (selectivity index) [1]: >3.0 | % Viability T. cruzi amastigotes ([1]; screening at 50 μM, 120 h, compared with untreated controls, 50 µM): 21.5 ± 2.2% | EC50 at 48 h ([3]; 48 h): 52.2 ± 4.51 µM | viability at 48 h, 0.4 µM ([3]; Table S2 dose-dependent): 94.5 ± 9.1% | viability at 48 h, 1 µM ([3]; Table S2 dose-dependent): 92.7 ± 4.1% | viability at 48 h, 2.6 µM ([3]; Table S2 dose-dependent): 86.3 ± 7.5% | viability at 48 h, 6.4 µM ([3]; Table S2 dose-dependent): 90.2 ± 10.7% | viability at 48 h, 16 µM ([3]; Table S2 dose-dependent): 77.7 ± 4.8% | viability at 48 h, 40 µM ([3]; Table S2 dose-dependent): 63.1 ± 5.8% | viability at 48 h, 100 µM [3, 6]: 29.5 ± 1.6%
